Nine molecules from PMC3826262 (MedChemComm, 2013) can be followed below.

The structures appear in SMILES notation. Non-standard residues stand in square brackets, D forms with d. Residues, ends and D or L forms follow the SMILES beside them. *: point of attachment. Cbz = O=C(OCc1ccccc1)*; Dap = NC[C@H](N)C(=O)O

In one assay the target is NVPro (Norovirus, UniProt Q83883). Nature of the assay: Inhibition of recombinant NVPro. The note with it: for fold less active than compound 1: ratio of Ki vs compound 1; for Ki: Table 1, recombinant NVPro. In kind it is biochemical.
A further assay addresses HOVPro (Norovirus Hu/Houston/TCH186/2002/US (Norovirus GII.4), UniProt A9YYE3). Kind of assay: Inhibition of Houston virus protease. In kind it is biochemical. The note with it: HOVPro vs NVPro Ki.

With `CC(=O)N[C@@H](CC(C)C)C(=O)N[C@@H](Cc1ccccc1)C(=O)N[C@H](C=O)CCC(=O)N(C)C` [compound 9] (Ac-Leu-Phe-Glu(NMe2)-aldehyde), the “fold less active than compound 1” value at NVPro (NVPro) was > 300 fold. On to `CC(=O)[C@H](CCC(=O)N(C)C)NC(=O)[C@H](Cc1ccccc1)NC(=O)[C@H](CC(C)C)NC(=O)OCc1ccccc1` [compound 10], for which the “fold less active than compound 1” value at NVPro (NVPro) is listed as 1,200 fold. For `CCOC(=O)/C=C/[C@H](CNC(C)=O)NC(=O)[C@H](Cc1ccccc1)NC(=O)[C@H](CC(C)C)NC(=O)OCc1ccccc1` [compound 13], on NVPro (NVPro), the “inhibitory activity against NVPro” value is listed as “Neither 12 nor 13 exhibits inhibitory activity”. Moreover, the Ki entry at NVPro is “inactive”. The matching figures for `CCOC(=O)/C=C/[C@H](CCC(N)=O)NC(=O)[C@H](Cc1ccccc1)NC(=O)[C@H](CC(C)C)NC(=O)OCc1ccccc1` [compound 12]: “Neither 12 nor 13 exhibits inhibitory activity” and “inactive”.

In the case of `CCOC(=O)/C=C/[C@H](CCC(=O)N(C)C)NC(=O)[C@H](Cc1ccccc1)NC(=O)[C@H](CC(C)C)NC(=O)OCc1ccccc1` [compound 11], on NVPro (NVPro), the “inhibitory activity against NVPro” value is “essentially inactive”. Further, the Ki result at NVPro was “inactive”. As for `CNC(=O)CC[C@@H](C=O)NC(=O)[C@H](Cc1ccccc1)NC(=O)[C@H](CC(C)C)NC(=O)OCc1ccccc1` [compound 14] (Cbz-Leu-Phe-Glu(NHMe)-aldehyde), the “fold less active than compound 1” value on NVPro (NVPro) was 42 fold. For `CC(C)C[C@H](NC(=O)OCc1ccccc1)C(=O)N[C@@H](Cc1ccccc1)C(=O)N[C@H](C=O)CCC(=O)N(C)C` [compound 1, Z-Leu-Phe-Gln(diMe)-CHO] (Cbz-Leu-Phe-Glu(NMe2)-aldehyde), the “fold activity reduction against HOVPro as compared with NVPro” value at HOVPro is > 60 fold. For the same molecule, on NVPro (NVPro, ratio of Ki), the “fold more active than compound 8” value is 380 fold; the “fold more active than compounds 5 and 2” value is on record as 3-5 fold. For the molecule `CC(=O)NC[C@@H](C=O)NC(=O)[C@H](Cc1ccccc1)NC(=O)[C@H](CC(C)C)NC(=O)OCc1ccccc1` [compound 3] (Cbz-Leu-Phe-[Dap](Ac)-aldehyde), the “fold less active than compound 1” value at NVPro (NVPro) is on record as ~ 12 fold. For `CC(C)C[C@H](NC(=O)OCc1ccccc1)C(=O)N[C@@H](Cc1ccccc1)C(=O)N[C@H](C=O)CCC(=O)NC1CC1` [compound 15], the “fold improved inhibition as compared to compound 14” value on NVPro (NVPro, ratio of Ki) is given as ~ 3 fold.
